Measurements from patent US20080119515A1, “Heterocyclic Kinase Inhibitors: Methods of Use and Synthesis” (priority 2003, published 2008).

Each compound was assayed against T1, ZAP-70 (Homo sapiens, UniProt P43403) (assay: DELFIA assay (ZAP-70 kinase, phosphorylation of biotinylated poly(glu,tyr))). Details: ZAP-70 DELFIA, class symbols; read-out: Activity (IC50 in vitro).
T1 sequence (P43403 1-619): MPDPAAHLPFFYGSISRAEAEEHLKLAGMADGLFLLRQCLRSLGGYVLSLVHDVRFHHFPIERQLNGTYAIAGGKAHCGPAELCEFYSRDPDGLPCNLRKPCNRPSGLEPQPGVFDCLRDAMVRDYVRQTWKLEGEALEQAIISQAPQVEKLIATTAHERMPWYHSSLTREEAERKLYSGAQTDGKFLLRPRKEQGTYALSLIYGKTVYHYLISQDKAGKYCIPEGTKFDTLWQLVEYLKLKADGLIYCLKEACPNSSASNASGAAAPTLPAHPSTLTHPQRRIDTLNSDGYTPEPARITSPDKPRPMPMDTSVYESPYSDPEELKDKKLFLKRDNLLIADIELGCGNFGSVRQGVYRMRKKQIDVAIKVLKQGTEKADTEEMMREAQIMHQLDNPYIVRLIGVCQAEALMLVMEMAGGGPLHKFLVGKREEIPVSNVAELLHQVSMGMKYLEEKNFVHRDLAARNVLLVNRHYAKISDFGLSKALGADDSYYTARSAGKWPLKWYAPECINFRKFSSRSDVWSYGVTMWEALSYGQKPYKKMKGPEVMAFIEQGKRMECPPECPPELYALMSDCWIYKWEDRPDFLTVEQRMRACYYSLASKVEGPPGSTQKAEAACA
Format: biochemical
Summary of the method: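 3.1 nM ZAP-70 pre-incubated 10 min at room temperature with compound ([…]) and 62.5 nM biotinylated poly(glu,tyr) in 62.5 mM Mops pH 7.0, 12.5 mM MgCl2, 12.5% glycerol, 6.25% DMSO (pre-incubation concentrations); ATP added from 5 mM stock, 30 min reaction, EDTA stop. Phosphorylation read by DELFIA europium anti-phosphotyrosine fluorescence (340/615).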
O=C(c1cc(NCc2ccc(C(F)(F)F)cc2)nc2ccc(-c3ccc(F)c(F)c3)cc12)N1CCC[C@H]1CN1CCCC1 [Compound 344] gave an IC50 of under 1 µM. O=C(c1cc(NCc2ccc(C(F)(F)F)cc2)nc2ccc(-c3csc4ccccc34)cc12)N1CCC[C@H]1CN1CCCC1 [Compound 300] was tested, and the IC50 was under 1 µM. O=C(c1cc(Cc2ccc(N3CCN(c4ccncc4)CC3)cc2)nc2ccc(-c3ccc4c(c3)OCO4)cc12)N1CCCC1CN1CCCC1 (stereo not drawn) [Compound 440] was tested, and the IC50 was under 1 µM. O=C(c1ccnc2ccc(-c3ccc4c(c3)OCO4)cc12)N1CCC[C@H]1CN1CCCC1 [Compound 399] showed an IC50 of over 10 µM. In the case of O=C(c1cc(NCc2ccccc2)nc2ccc(-c3ccc4c(c3)OCO4)cc12)N1CCC[C@H]1CN1CCOCC1 [Compound 83], the IC50 is reported as 1 to 10 µM. O=C(c1cc(Cc2ccc(N3CCNCC3)cc2)nc2ccc(-c3ccc4c(c3)OCO4)cc12)N1CCCC1CN1CCCC1 (stereo not drawn) [Compound 439] was tested, and the IC50 was under 1 µM. With O=C(c1cc(NCc2ccc(F)cc2)nc2ccc(-c3ccc4c(c3)OCO4)cc12)N1CCC[C@H]1CN1CCCC1 [Compound 30] the IC50 was under 1 µM. With Cc1ccccc1CNc1cc(C(=O)N2CCC[C@H]2CN2CCCC2)c2cc(-c3ccc(C#N)cc3)ccc2n1 [Compound 172] the IC50 was over 10 µM. O=C(c1cc(NC2CC2)nc2ccccc12)N1CCC[C@H]1CN1CCCC1 [Compound 9] was tested, and the IC50 was over 10 µM. C[C@@H](O)CNc1cc(C(=O)N2CCC[C@H]2CN2CCCC2)c2cc(-c3ccc4c(c3)OCO4)ccc2n1 [Compound 47] gave an IC50 of 1 to 10 µM. For N#Cc1ccc(-c2ccc3nc(NCc4ccccc4Br)cc(C(=O)N4CCC[C@H]4CN4CCCC4)c3c2)cc1 [Compound 181], the IC50 was over 10 µM. Work on CN(Cc1ccccc1Cl)c1cc(C(=O)N2CCC[C@H]2CN2CCCC2)c2cc(-c3ccc(C#N)cc3)ccc2n1 [Compound 211] yielded an IC50 of over 10 µM. O=C(Nc1cc(C(=O)N2CCC[C@H]2CN2CCCC2)c2cc(-c3ccc4c(c3)OCO4)ccc2n1)c1ccc(Cl)cc1 [Compound 386] was tested, and the IC50 was 1 to 10 µM. Compound O=C(c1cc(CCc2ccc(F)cc2F)nc2ccc(-c3ccc4c(c3)OCO4)cc12)N1CCC[C@H]1CN1CCCC1 [Compound 397] has an IC50 of under 1 µM. For N#Cc1ccc(-c2ccc3nc(CCc4ccc(F)cc4)cc(C(=O)N4CCC[C@H]4CN4CCCC4)c3c2)cc1 [Compound 388], the IC50 was 1 to 10 µM. N#Cc1ccc(-c2ccc3nc(NCCc4cccc(O)c4)cc(C(=O)N4CCC[C@H]4CN4CCCC4)c3c2)cc1 [Compound 320] showed an IC50 of 1 to 10 µM. N#Cc1ccc(-c2ccc3nc(N[C@@H]4CCCc5ccccc54)cc(C(=O)N4CCC[C@H]4CN4CCCC4)c3c2)cc1 [Compound 205] showed an IC50 of over 10 µM. With O=C(c1cc(Sc2cccc(C(F)(F)F)c2)nc2ccc(-c3ccc4c(c3)OCO4)cc12)N1CCC[C@H]1CN1CCCC1 [Compound 324] the IC50 was under 1 µM. In the case of Nc1cc(-c2ccc3c(c2)OCO3)cc2c(C(=O)N3CCC[C@H]3CN3CCCC3)cc(CCc3ccc(C(F)(F)F)cc3)nc12 [Compound 432], the IC50 is reported as under 1 µM. CN(c1ccccn1)c1cc(C(=O)N2CCC[C@H]2CN2CCCC2)c2cc(-c3ccc4c(c3)OCO4)ccc2n1 [Compound 78] was tested, and the IC50 was 1 to 10 µM. Compound O=C(c1cc(Cl)nc2ccc(-c3ccc4c(c3)OCO4)cc12)N1CCC[C@H]1CN1CCCC1 [Compound 1] has an IC50 of 1 to 10 µM. In the case of N#Cc1ccc(-c2ccc3nc(N[C@H]4CCCc5ccccc54)cc(C(=O)N4CCC[C@H]4CN4CCCC4)c3c2)cc1 [Compound 206], the IC50 is reported as over 10 µM. COc1cc(C(=O)N2CCC[C@H]2CN2CCCC2)cc(NCc2ccccc2)n1 [Compound 7] showed an IC50 of over 10 µM. In the case of COc1ccc(CNc2cc(C(=O)N3CCC[C@H]3CN3CCCC3)c3cc(-c4ccc(C#N)cc4)ccc3n2)cc1 [Compound 152], the IC50 is reported as over 10 µM. O=C(c1cc(NCc2ccc(C(F)(F)F)cc2)ncc1Cl)N1CCC[C@H]1CN1CCCC1 [Compound 114] gave an IC50 of over 10 µM. O=C(c1cc(NCc2ccc(C(F)(F)F)cc2)nc2ccc(I)cc12)N1CCC[C@H]1CN1CCCC1 [Compound 356] was tested, and the IC50 was over 10 µM. For O=C(c1cc(NCc2ccc(C(F)(F)F)cc2)nc2ccc(-c3ccc(F)cc3F)cc12)N1CCC[C@H]1CN1CCCC1 [Compound 307], the IC50 was 1 to 10 µM. N#Cc1ccc(-c2ccc3nc(NCc4cc(F)cc(F)c4)cc(C(=O)N4CCC[C@H]4CN4CCCC4)c3c2)cc1 [Compound 188] gave an IC50 of over 10 µM. O=C(c1cc(N2CCC(N3CCCC3)CC2)nc2ccc(-c3ccc4c(c3)OCO4)cc12)N1CCC[C@H]1CN1CCCC1 [Compound 64] gave an IC50 of 1 to 10 µM. Compound N#Cc1ccc(-c2ccc3nc(N(CCCO)Cc4ccccc4)cc(C(=O)N4CCC[C@H]4CN4CCCC4)c3c2)cc1 [Compound 213] has an IC50 of over 10 µM. In the case of O=C(c1cc(NCc2ccc(C(F)(F)F)cc2)nc2ccc(-c3nc(Cl)ns3)cc12)N1CCC[C@H]1CN1CCCC1 [Compound 341], the IC50 is reported as over 10 µM. Work on CCN(Cc1ccc(C)cc1)C(=O)c1cc(C(=O)N2CCC[C@H]2CN2CCCC2)c2cc(-c3ccc4c(c3)OCO4)ccc2n1 [Compound 143] yielded an IC50 of 1 to 10 µM. In the case of O=C(c1cc(NCc2ccc(C(F)(F)F)cc2)nc2ccc(-c3ccc4c(c3)OC(F)(F)O4)cc12)N1CCC[C@H]1CN1CCCC1 [Compound 348], the IC50 is reported as under 1 µM. Work on Cc1c(NCc2ccc(C(F)(F)F)cc2)nc2ccc(-c3ccc4c(c3)OCO4)cc2c1C(=O)N1CCC[C@H]1CN1CCCC1 [Compound 124] yielded an IC50 of 1 to 10 µM. Work on C[C@@H](CNc1cc(C(=O)N2CCC[C@H]2CN2CCCC2)c2cc(-c3ccc(C#N)cc3)ccc2n1)c1ccccc1 [Compound 186] yielded an IC50 of over 10 µM. N#Cc1ccc(-c2ccc3nc(NCC4(c5cccs5)CC4)cc(C(=O)N4CCC[C@H]4CN4CCCC4)c3c2)cc1 [Compound 272] gave an IC50 of over 10 µM. O=C(c1cc(Nc2ccccc2)nc2ccc(-c3ccc4c(c3)OCO4)cc12)N1CCC[C@H]1CN1CCCC1 [Compound 13] gave an IC50 of under 1 µM. O=C(c1cc(NCc2ccc(C(F)(F)F)cc2)nc2ccc(-c3ccc4c(c3)OCO4)cc12)N1CCC[C@H]1CNC1CCCC1 [Compound 358] was tested, and the IC50 was under 1 µM. Compound CN(C)CCN1CCN(c2ccc(Cc3cc(C(=O)N4CCCC4CN4CCCC4)c4cc(-c5ccc6c(c5)OCO6)ccc4n3)cc2)CC1 (stereo not drawn) [Compound 442] has an IC50 of under 1 µM. Work on CN1CCN(c2ccc(Nc3cc(Nc4ccc(N5CCN(C)CC5)cc4)c4cc(-c5ccc6c(c5)OCO6)ccc4n3)cc2)CC1 [Compound 448] yielded an IC50 of under 1 µM. Cn1ccc2cc(-c3ccc4nc(NCc5ccc(C(F)(F)F)cc5)cc(C(=O)N5CCC[C@H]5CN5CCCC5)c4c3)ccc21 [Compound 421] showed an IC50 of over 10 µM. For CN(CCc1ccccc1)c1cc(C(=O)N2CCC[C@H]2CN2CCCC2)cc(/C=C/c2ccccc2)n1 [Compound 365], the IC50 was 1 to 10 µM. In the case of O=C(c1cc(-c2ccc(Cl)c(Cl)c2)nc2ccc(-c3ccc(Cl)c(Cl)c3)cc12)N1CCC[C@H]1CN1CCCC1 [Compound 97], the IC50 is reported as 1 to 10 µM. For O=C(c1cc(NCc2ccc(Cl)cc2)nc2ccc(-c3ccc4c(c3)OCO4)cc12)N1CCC[C@H]1CN1CCCC1 [Compound 35], the IC50 was under 1 µM. O=C(c1cc(NC2CCC2)nc2ccc(-c3ccc4c(c3)OCO4)cc12)N1CCC[C@H]1CN1CCCC1 [Compound 39] was tested, and the IC50 was 1 to 10 µM. FC(F)(F)c1ccc(CNc2cc(N3CCC[C@H]3CN3CCCC3)nc3ccc(-c4ccc5c(c4)OCO5)cc23)cc1 [Compound 104] showed an IC50 of 1 to 10 µM. For COc1ccc(C#Cc2ccc3nc(NCc4ccc(C(F)(F)F)cc4)cc(C(=O)N4CCC[C@H]4CN4CCCC4)c3c2)cc1 [Compound 282], the IC50 was 1 to 10 µM.

Same assay, conditions: ZAP-70 DELFIA, numeric value; read-out: Activity (IC50 in vitro)
For Cc1ccc(-c2ccc3nc(NCc4ccc(C(F)(F)F)cc4)cc(C(=O)N4CCC[C@H]4CN4CCCC4)c3c2)s1 [Compound 301], the IC50 was 1.78 µM.
